Results published in the NIST ThermoML archive (doi:10.1021/je100145f).

Experiment: molar heat capacity at constant pressure; xn = mol fraction of the nth substance listed
Conditions: 101 kPa, Liquid, Small sample (50 mg) DSC

N#Cc1ccccc1 [benzonitrile] + CCCCCCCC
molar heat capacity at constant pressure [J/K/mol]
Conditions | 283.15 K | 288.15 K | 293.15 K | 298.15 K | 303.15 K | 308.15 K | 313.15 K | 318.15 K
x1 = 0.0219 | 246.32 | 248.19 | 250.11 | 252.1 | 254.14 | 256.24 | 258.38 | 260.56
x1 = 0.0576 | 243.69 | 245.52 | 247.38 | 249.32 | 251.3 | 253.34 | 255.43 | 257.56
x1 = 0.1021 | 240.66 | 242.38 | 244.17 | 246 | 247.92 | 249.87 | 251.88 | 253.94
x1 = 0.1999 | 234.51 | 235.9 | 237.41 | 239.04 | 240.74 | 242.5 | 244.34 | 246.23
x1 = 0.2998 | 229.04 | 229.53 | 230.52 | 231.82 | 233.28 | 234.82 | 236.47 | 238.12
x1 = 0.4002 | 224.38 | 222.59 | 223.06 | 224.03 | 225.26 | 226.66 | 228.12 | 229.73
x1 = 0.4637 | 219.83 | 217.33 | 217.69 | 218.58 | 219.78 | 221.13 | 222.51 | –
x1 = 0.5001 | 215.93 | 213.9 | 214.32 | 215.28 | 216.5 | 217.77 | 219.26 | 220.74
x1 = 0.6001 | 203.15 | 203.61 | 204.57 | 205.76 | 207.09 | 208.41 | 209.85 | 211.38
x1 = 0.7003 | 192.17 | 193.38 | 194.65 | 195.97 | 197.33 | 198.73 | 200.16 | 201.61
x1 = 0.7999 | 182.68 | 183.92 | 185.2 | 186.53 | 187.88 | 189.25 | 190.63 | 192.02
x1 = 0.9 | 173.26 | 174.47 | 175.71 | 176.98 | 178.27 | 179.58 | 180.92 | 182.23
x1 = 0.95 | 168.41 | 169.62 | 170.83 | 172.09 | 173.36 | 174.65 | 175.96 | 177.25
x1 = 0.9801 | 165.44 | 166.62 | 167.83 | 169.07 | 170.34 | 171.61 | 172.89 | 174.17
x1 = 1 | 163.43 | 164.61 | 165.82 | 167.06 | 168.32 | 169.59 | 170.87 | 172.15

N#Cc1ccccc1 [benzonitrile] + CCCCCCCCC
molar heat capacity at constant pressure [J/K/mol]
Conditions | 285.15 K | 288.15 K | 293.15 K | 298.15 K | 303.15 K | 308.15 K | 313.15 K
x1 = 0.0239 | 275.6 | 276.8 | 278.87 | 280.98 | 283.18 | 285.48 | 287.76
x1 = 0.0499 | 272.83 | 274.01 | 276.02 | 278.11 | 280.26 | 282.5 | 284.75
x1 = 0.0989 | 267.94 | 269.06 | 270.98 | 272.97 | 275.01 | 277.16 | 279.34
x1 = 0.1984 | 258.53 | 259.47 | 261.13 | 262.87 | 264.72 | 266.66 | 268.65
x1 = 0.2543 | 253.53 | 254.27 | 255.7 | 257.26 | 258.97 | 260.77 | 262.65
x1 = 0.3 | 249.7 | 250.12 | 251.28 | 252.66 | 254.22 | 255.89 | 257.63
x1 = 0.4004 | 242.4 | 241.04 | 241.24 | 242.16 | 243.44 | 244.94 | 246.59
x1 = 0.4968 | 234.22 | 230.79 | 230.43 | 231.16 | 232.33 | 233.66 | 235.16
x1 = 0.6 | 217.32 | 216.76 | 217.29 | 218.27 | 219.53 | 220.89 | 222.37
x1 = 0.6996 | 202.24 | 202.88 | 204.1 | 205.37 | 206.74 | 208.21 | 209.67
x1 = 0.8 | 189.2 | 189.97 | 191.28 | 192.63 | 194 | 195.39 | 196.84
x1 = 0.9 | 176.74 | 177.48 | 178.75 | 180.02 | 181.35 | 182.67 | 184.01
x1 = 0.9498 | 170.45 | 171.18 | 172.4 | 173.65 | 174.93 | 176.22 | 177.48
x1 = 0.9805 | 166.46 | 167.19 | 168.41 | 169.64 | 170.89 | 172.18 | 173.44
x1 = 1 | 163.9 | 164.63 | 165.82 | 167.06 | 168.32 | 169.59 | 170.87
